Series [1] addresses Protein kinase C alpha type (Homo sapiens, UniProt P17252). The format is cell-based. As to conditions: sf9.
The next series addresses T1, Thromboxane-A synthase (Homo sapiens, UniProt P24557).
T1 sequence (P24557 whole entry): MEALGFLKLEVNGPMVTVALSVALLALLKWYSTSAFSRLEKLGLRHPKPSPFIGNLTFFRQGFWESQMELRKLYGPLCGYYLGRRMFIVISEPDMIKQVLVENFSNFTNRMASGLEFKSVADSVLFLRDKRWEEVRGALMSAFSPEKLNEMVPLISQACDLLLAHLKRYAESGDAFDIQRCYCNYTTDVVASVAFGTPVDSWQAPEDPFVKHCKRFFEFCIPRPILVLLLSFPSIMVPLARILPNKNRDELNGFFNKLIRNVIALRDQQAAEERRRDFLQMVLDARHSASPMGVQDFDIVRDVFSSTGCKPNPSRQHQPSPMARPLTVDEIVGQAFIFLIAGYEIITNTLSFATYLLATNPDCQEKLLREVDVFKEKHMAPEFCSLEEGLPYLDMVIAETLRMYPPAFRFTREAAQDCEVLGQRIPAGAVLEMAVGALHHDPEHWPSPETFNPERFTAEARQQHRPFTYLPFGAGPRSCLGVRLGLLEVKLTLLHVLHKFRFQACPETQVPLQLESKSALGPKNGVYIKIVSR
As to the kind of experiment: biochemical. The format is tissue-based, Platelet. Particulars: platelet.

Series [2] has as its target C-C chemokine receptor type 5 (Homo sapiens, UniProt P51681). Type of series: cell membranes, Membrane. As to conditions: hek293.
For series [3], the target named is T2, Alpha-1D adrenergic receptor (Homo sapiens, UniProt P25100).
T2 sequence (P25100 whole entry): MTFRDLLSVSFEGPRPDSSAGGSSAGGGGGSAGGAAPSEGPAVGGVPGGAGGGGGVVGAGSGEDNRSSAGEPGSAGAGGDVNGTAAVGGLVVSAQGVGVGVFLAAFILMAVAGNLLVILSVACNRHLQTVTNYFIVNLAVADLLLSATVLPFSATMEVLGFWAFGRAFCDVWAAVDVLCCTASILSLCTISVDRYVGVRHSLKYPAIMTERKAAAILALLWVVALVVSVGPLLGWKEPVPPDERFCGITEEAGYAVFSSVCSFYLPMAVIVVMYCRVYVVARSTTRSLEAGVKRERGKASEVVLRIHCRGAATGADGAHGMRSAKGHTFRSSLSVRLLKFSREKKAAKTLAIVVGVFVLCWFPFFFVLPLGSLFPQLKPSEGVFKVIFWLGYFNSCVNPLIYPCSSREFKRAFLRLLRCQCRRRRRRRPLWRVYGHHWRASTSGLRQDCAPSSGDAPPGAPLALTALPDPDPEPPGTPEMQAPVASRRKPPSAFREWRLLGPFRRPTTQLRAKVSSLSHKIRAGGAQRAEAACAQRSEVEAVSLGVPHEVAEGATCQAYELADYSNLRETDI
Type of series: cell membranes, HEK293, Membrane. Particulars: hek293.

Another series has as its target T3, Cytochrome P450 2A6 (Homo sapiens, UniProt P11509).
T3 sequence (P11509 whole entry): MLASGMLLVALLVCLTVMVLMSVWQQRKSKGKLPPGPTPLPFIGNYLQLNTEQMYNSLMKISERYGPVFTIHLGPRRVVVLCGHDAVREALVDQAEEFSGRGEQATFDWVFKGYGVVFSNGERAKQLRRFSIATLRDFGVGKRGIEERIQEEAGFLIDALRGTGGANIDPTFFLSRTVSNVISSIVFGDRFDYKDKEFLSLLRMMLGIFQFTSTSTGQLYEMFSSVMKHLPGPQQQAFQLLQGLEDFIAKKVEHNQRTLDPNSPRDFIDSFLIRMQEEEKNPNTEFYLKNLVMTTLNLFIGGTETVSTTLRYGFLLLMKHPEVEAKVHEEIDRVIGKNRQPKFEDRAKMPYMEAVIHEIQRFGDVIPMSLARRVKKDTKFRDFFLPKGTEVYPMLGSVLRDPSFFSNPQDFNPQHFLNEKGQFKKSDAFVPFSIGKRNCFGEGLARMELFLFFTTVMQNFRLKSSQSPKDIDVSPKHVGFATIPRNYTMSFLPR
Particulars: bti-tn-5b1-4.

Series [4] concerns the target T4, Muscarinic acetylcholine receptor M5 (Homo sapiens, UniProt P08912).
T4 sequence (P08912 whole entry): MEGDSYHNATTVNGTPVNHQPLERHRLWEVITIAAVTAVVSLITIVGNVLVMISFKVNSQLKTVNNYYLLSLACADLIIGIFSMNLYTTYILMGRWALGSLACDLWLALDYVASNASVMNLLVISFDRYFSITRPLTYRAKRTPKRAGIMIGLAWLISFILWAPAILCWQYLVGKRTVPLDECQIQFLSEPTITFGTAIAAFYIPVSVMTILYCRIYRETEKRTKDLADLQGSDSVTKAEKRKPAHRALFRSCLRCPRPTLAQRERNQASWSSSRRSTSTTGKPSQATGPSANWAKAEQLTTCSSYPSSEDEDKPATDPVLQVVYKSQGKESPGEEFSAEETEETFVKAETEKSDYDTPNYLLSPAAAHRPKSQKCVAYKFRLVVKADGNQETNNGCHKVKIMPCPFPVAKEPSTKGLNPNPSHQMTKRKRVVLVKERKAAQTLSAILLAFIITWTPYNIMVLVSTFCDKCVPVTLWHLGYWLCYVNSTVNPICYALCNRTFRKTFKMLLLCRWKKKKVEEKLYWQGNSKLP
The format is cell membranes, CHO-K1, Membrane.
Note: in other assays of this panel Not Active means under 50% inhibition at 10 µM.

Sequence of C-C chemokine receptor type 5 (P51681 whole entry): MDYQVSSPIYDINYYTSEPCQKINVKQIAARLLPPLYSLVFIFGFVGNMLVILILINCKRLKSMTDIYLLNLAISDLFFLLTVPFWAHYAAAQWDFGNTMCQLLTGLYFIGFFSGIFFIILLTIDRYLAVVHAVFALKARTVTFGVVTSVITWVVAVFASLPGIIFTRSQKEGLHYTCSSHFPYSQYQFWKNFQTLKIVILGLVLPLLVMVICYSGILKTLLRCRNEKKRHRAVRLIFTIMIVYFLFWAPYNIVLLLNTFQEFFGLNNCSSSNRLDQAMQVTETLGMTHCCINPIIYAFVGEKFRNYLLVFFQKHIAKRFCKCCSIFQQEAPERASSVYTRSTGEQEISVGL

With `Nc1ccc(S(=O)(=O)NC(=O)c2ccccc2)cc1` [SULFABENZAMIDE], the IC50 entry (in series [1]; on Thromboxane-A synthase; in series [2]; in series [3]; on Cytochrome P450 2A6; in series [4] (cho-k1)) was “Not Active” throughout. Moreover, the Ki entry at Cytochrome P450 2A6 is “Not Active”.
As to `CCCCCCCCNC(C)C(O)c1ccc(SC(C)C)cc1` (centres undefined) [SULOCTIDIL], the half-maximal inhibitory concentration (IC50) entry is “Not Active” in series [1]; “Not Active” against Thromboxane-A synthase; “Not Active” in series [2]; “Not Active” in series [3]; “Not Active” against Cytochrome P450 2A6; 4.49 µM in series [4] (read-out: IC50). The inhibition constant Ki result was “Not Active” at Cytochrome P450 2A6 and 3.22 µM in series [4] (read-out: Ki).
In the case of `O=c1[nH]c(=O)n(C2CCCO2)cc1F` (centres undefined) [TEGAFUR], the IC50 result (in series [1]; against Thromboxane-A synthase; in series [2]; in series [3]; at Cytochrome P450 2A6; in series [4] (cho-k1)) was “Not Active” each time. Further, the inhibitory constant (Ki) result on Cytochrome P450 2A6 was “Not Active”.
Turning to `CC(=N)S` [THIOACETAMIDE], the concentration for half-maximal inhibition (IC50) result (in series [1]; at Thromboxane-A synthase; in series [2]; in series [3]; at Cytochrome P450 2A6; in series [4] (cho-k1)) was “Not Active” each time. Further, the Ki result at Cytochrome P450 2A6 is listed as “Not Active”.
For `Cc1ccc(C(=O)c2ccc(CC(=O)O)n2C)cc1` [TOLMETIN], the concentration for half-maximal inhibition (IC50) entry (in series [1]; against Thromboxane-A synthase; in series [2]; in series [3]; against Cytochrome P450 2A6; in series [4] (cho-k1)) was “Not Active” throughout. The Ki result on Cytochrome P450 2A6 is reported as “Not Active”.
For `CC(=O)OCC(COC(C)=O)OC(C)=O` [TRIACETIN], the IC50 result (in series [1]; at Thromboxane-A synthase; in series [2]; in series [3]; at Cytochrome P450 2A6; in series [4] (cho-k1)) was “Not Active” each time. Also, the inhibition constant (Ki) entry at Cytochrome P450 2A6 is “Not Active”.
In the case of `CN1CCN(CCCN2c3ccccc3Sc3ccc(C(F)(F)F)cc32)CC1` [TRIFLUOPERAZINE], the 50% inhibitory concentration (IC50) result (in series [1]; against Thromboxane-A synthase; in series [2]; in series [3]; against Cytochrome P450 2A6; in series [4] (cho-k1)) was “Not Active” in each case. In addition, the Ki entry on Cytochrome P450 2A6 is listed as “Not Active”.
For TRANSPLATIN, the IC50 result was “Not Active” in series [1]; “Not Active” against Thromboxane-A synthase; “Not Active” in series [2]; “Not Active” in series [3]; “Not Active” against Cytochrome P450 2A6; 5.93 µM in series [4] (cho-k1, read-out: IC50). The inhibition constant (Ki) entry in series [1] is “Not Active”; on Thromboxane-A synthase, “Not Active”; in series [2] it was “Not Active”; in series [3] it was “Not Active”; at Cytochrome P450 2A6, “Not Active”; in series [4] (cho-k1, read-out: Ki), 4.26 µM.
Consider ZIRCONIUM(IV) CHLORIDE, for which the half-maximal inhibitory concentration (IC50) result (in series [1]; against Thromboxane-A synthase; in series [2]; in series [3]; on Cytochrome P450 2A6; in series [4] (cho-k1)) was “Not Active” throughout. The inhibition constant (Ki) result (in series [1]; on Thromboxane-A synthase; in series [2]; in series [3]; at Cytochrome P450 2A6; in series [4] (cho-k1)) was “Not Active” each time.

Broadly, the IC50 is the concentration that inhibits the measured activity by half. A word on the Ki: it is a dissociation constant, usually derived from enzyme kinetics or from competition with a known ligand.
